In patent US20220177511A1, “SERIES OF HALOGENATED TETRACYCLIC TRITERPENE DERIVATIVES AND THEIR PREPARATION AND APPLICATION” (SHANGHAI KING-X BIOTECH CO., LTD, priority 2019, published 2022):

Legend:
[1] = Solubility test in water and FaSSIF; assay type: physicochemical; details: 37° C., up to 24 hours
[2] = Pharmacokinetics of parent HHQ16 after single intragastric administration of compound 2 prodrugs in rats; assay type: in vivo, rat; details: HHQ16 (parent) measured in rats after single intragastric 10 mg/kg of prodrug (dose converted to HHQ16)
Method: 1. The materials and methods for oral absorption test are the same as described in example 44.
The pharmacokinetic parameters of HHQ16 measured after a single intragastric administration of 10 mg/kg of compound 2 prodrug in rats are summarized in Table 2 below.
The half-life was prolonged to varying degrees.

C57 mouse CHF model = experiment: In vivo efficacy on chronic heart failure in mice (coronary artery ligation, echocardiography), enalapril control; details: positive control 2 mg/kg, p<0.0001 (FIG. 6)
Method: C57 mouse coronary artery ligation method was used in this experiment to prepare the mouse CHF model. The differences in echocardiography, hemodynamics and histopathology of the model were observed after administration. Test substance: compound 2. Solvent: 0.3% sodium carboxymethyl cellulose. Dosage: 1 mg/kg, 3 mg/kg, 10 mg/kg, 30 mg/kg and 100 mg/kg. Route of administration: intragastric. Control drug: enalapril 2 mg/kg. Strain: C57 mouse; Age: 7 weeks; Weight: 18-20 g; Gender: Male; Grade: SPF C57 mouse CHF model was established by coronary artery ligation method in this experiment. The differences in echocardiography, hemodynamics and histopathology of the model were observed after administration. 5 dose groups were set for compound 2 in this experiment. Enalapril was selected as the positive control. Once daily for 28 consecutive days. The doses for each group was 1 mg/kg, 3 mg/kg, 10 mg/kg, 30 mg/kg and 100 mg/kg. Positive control group: Enalapril (2 mg/kg) was administered after CHF was established. The mice were anesthetized in a box filled with isoflurane. After the mice were anesthetized, the left 4th intercostal space was opened to expose the left atrial appendage and left ventricle. It can be seen that the left coronary artery runs downward from the middle of the left atrial appendage to the anterior wall of the left ventricle. The coronary artery is sutured at a high position about 1 mm from the lower border of the left atrial appendage. After ligation, the myocardium gradually changes from fleshy red to pale white, indicating myocardial infarction. The model is successfully established, and the chest is closed layer by layer. After the spontaneous breathing of the mice recovered, the mice were caged and reared in a day-night cycle with free access to water and food. After being reared for 30 days, the chronic heart failure model was detected by echocardiography, and the mice with successful chronic heart failure model were selected. Qualified CHF mice screened by echocardiography were randomly grouped. Mice were given compound 2 by intragastric administration once daily for 28 consecutive days. The body weight of mice was measured every week, and echocardiography was performed after 28 days of administration. After the […] anesthetized, 1 mm^3 tissue was taken from the hearts of 3 mice in each group, fixed with electron microscope fixative, and detected by transmission electron microscope to observe the ultrastructure of the heart. All remaining heart tissues were fixed with 10% formaldehyde, and stained with HE for histopathology to observe histopathological changes.

| SMILES | Solubility ([1]; FaSSIF (pH 6.5)) | Solubility ([1]; Water) | AUC0-t [2] | Cmax [2] | t1/2 [2] | Cardiac output per minute (CO), day 28 vs day 0 (C57 mouse CHF model) |
| --- | --- | --- | --- | --- | --- | --- |
| CC(C)C(N)C(=O)OC1CC2C3(C)CC(O)C(C4(C)CCC(C(C)(C)O)O4)C3(C)CCC23CC32CCC(F)(F)C(C)(C)C12.Cl (mixture of isomers) [Compound 2-15, 1-(((2aR,3R,4S,5aS,5bS,7S,7aR,11aR,12aS)-9,9-difluoro-4-hydroxy-3-((2S,5S)-5-(2-hydroxypropan-2-yl)-2-methyltetrahydrofuran-2-yl)-2a,5a,8,8-tetramethyltetradecahydro-1H,12H-cyclopenta[a]cyclopropa[e]phenanthren-7-yl)oxy)-3-methyl-1-oxobutan-2-aminium Chloride] | 3020 µg/mL | 770 µg/mL | 4500 ng·h/mL | 451 ng/mL | 8.2 h |  |
| CC(C)(O)[C@@H]1CC[C@@](C)([C@H]2[C@@H](O)C[C@@]3(C)[C@@H]4C[C@H](OC(=O)C[C@H]5CCCN5)[C@H]5C(C)(C)C(F)(F)CC[C@@]56C[C@@]46CC[C@]23C)O1.Cl [Compound 2-3, (R)-2-(2-(((2aR,3R,4S,5aS,5bS,7S,7aR,11aR,12aS)-9,9-difluoro-4-hydroxy-3-((2S,5S)-5-(2-hydroxypropan-2-yl)-2-methyltetrahydrofuran-2-yl)-2a,5a,8,8-tetramethyltetradecahydro-1H,12H-cyclopenta[a]cyclopropa[e]phenanthren-7-yl)oxy)-2-oxoethyl)pyrrolidin-1-ium Chloride] | 1800 µg/mL | 950 µg/mL | 3200 ng·h/mL | 460 ng/mL | 3.98 h |  |
| Br.CC(C)(O)C1CCC(C)(C2C(O)CC3(C)C4CC(OC(=O)CN)C5C(C)(C)C(F)(F)CCC56CC46CCC23C)O1 [Compound 2-16, 2-(((2aR,3R,4S,5aS,5bS,7S,7aR,11aR,12aS)-9,9-difluoro-4-hydroxy-3-((2S,5S)-5-(2-hydroxypropan-2-yl)-2-methyltetrahydrofuran-2-yl)-2a,5a,8,8-tetramethyltetradecahydro-1H,12H-cyclopenta[a]cyclopropa[e]phenanthren-7-yl)oxy)-2-oxoethan-1-aminium Bromide] | 5300 µg/mL | 950 µg/mL | 4623 ng·h/mL | 510 ng/mL | 5.2 h |  |
| CC(C)(O)[C@@H]1CC[C@@](C)([C@H]2[C@@H](O)C[C@@]3(C)[C@@H]4C[C@H](OC(=O)[C@@H](N)CO)[C@H]5C(C)(C)C(F)(F)CC[C@@]56C[C@@]46CC[C@]23C)O1.Cl [Compound 2-19, (S)-1-(((2aR,3R,4S,5aS,5bS,7S,7aR,11aR,12aS)-9,9-difluoro-4-hydroxy-3-((2S,5S)-5-(2-hydroxypropan-2-yl)-2-methyltetrahydrofuran-2-yl)-2a,5a,8,8-tetramethyltetradecahydro-1H,12H-cyclopenta[a]cyclopropa[e]phenanthren-7-yl)oxy)-3-hydroxy-1-oxopropan-2-aminium chloride] | 3980 µg/mL | 1240 µg/mL | 4400 ng·h/mL | 602 ng/mL | 3.5 h |  |
| CC(O)C(N)C(=O)OC1CC2C3(C)CC(O)C(C4(C)CCC(C(C)(C)O)O4)C3(C)CCC23CC32CCC(F)(F)C(C)(C)C12.Cl [Compound 2-20, (2S,3S)-1-(((2aR,3R,4S,5aS,5bS,7S,7aR,11aR,12aS)-9,9-difluoro-4-hydroxy-3-((2S,5S)-5-(2-hydroxypropan-2-yl)-2-methyltetrahydrofuran-2-yl)-2a,5a,8,8-tetramethyltetradecahydro-1H,12H-cyclopenta[a]cyclopropa[e]phenanthren-7-yl)oxy)-3-hydroxy-1-oxobutan-2-aminium Chloride] | 2800 µg/mL | 1200 µg/mL | 4005 ng·h/mL | 582 ng/mL | 3.6 h |  |
| CC(C)(O)[C@@H]1CC[C@@](C)([C@H]2[C@@H](O)C[C@@]3(C)[C@@H]4C[C@H](OC(=O)CNC(=O)CN)[C@H]5C(C)(C)C(F)(F)CC[C@@]56C[C@@]46CC[C@]23C)O1.Cl [Compound 2-27, 2-((2-(((2aR,3R,4S,5aS,5bS,7S,7aR,11aR,12aS)-9,9-difluoro-4-hydroxy-3-((2S,5S)-5-(2-hydroxypropan-2-yl)-2-methyltetrahydrofuran-2-yl)-2a,5a,8,8-tetramethyltetradecahydro-1H,12H-cyclopenta[a]cyclopropa[e]phenanthren-7-yl)oxy)-2-oxoethyl)amino)-2-oxoethan-1-aminium Chloride] | 4300 µg/mL | 1300 µg/mL | 3005 ng·h/mL | 358 ng/mL | 7.5 h |  |
| CN(CC(=O)OC1CC2C3(C)CC(O)C(C4(C)CCC(C(C)(C)O)O4)C3(C)CCC23CC32CCC(F)(F)C(C)(C)C12)C(=O)C(N)Cc1ccccc1.Cl [Compound 2-28, (R)-1-((2-(((2aR,3R,4S,5aS,5bS,7S,7aR,11aR,12aS)-9,9-difluoro-4-hydroxy-3-((2S,5S)-5-(2-hydroxypropan-2-yl)-2-methyltetrahydrofuran-2-yl)-2a,5a,8,8-tetramethyltetradecahydro-1H,12H-cyclopenta[a]cyclopropa[e]phenanthren-7-yl)oxy)-2-oxoethyl)(methyl)amino)-1-oxo-3-phenylpropan-2-aminium Chloride] | 2850 µg/mL | 650 µg/mL | 4332 ng·h/mL | 475 ng/mL | 6.2 h |  |
| CC(N)C(=O)N(C)CC(=O)OC1CC2C3(C)CC(O)C(C4(C)CCC(C(C)(C)O)O4)C3(C)CCC23CC32CCC(F)(F)C(C)(C)C12.Cl [Compound 2-29, (S)-1-((2-(((2aR,3R,4S,5aS,5bS,7S,7aR,11aR,12aS)-9,9-difluoro-4-hydroxy-3-((2S,5S)-5-(2-hydroxypropan-2-yl)-2-methyltetrahydrofuran-2-yl)-2a,5a,8,8-tetramethyltetradecahydro-1H,12H-cyclopenta[a]cyclopropa[e]phenanthren-7-yl)oxy)-2-oxoethyl)(methyl)amino)-1-oxopropan-2-aminium Chloride] | 3130 µg/mL | 950 µg/mL | 5221 ng·h/mL | 605 ng/mL | 5.6 h |  |
| CC(C)(O)[C@@H]1CC[C@@](C)([C@H]2[C@@H](O)C[C@@]3(C)[C@@H]4C[C@H](OC(=O)CNC(=O)[C@@H](N)CO)[C@H]5C(C)(C)C(F)(F)CC[C@@]56C[C@@]46CC[C@]23C)O1.Cl [Compound 2-31, (S)-1-((2-(((2aR,3R,4S,5aS,5bS,7S,7aR,11aR,12aS)-9,9-difluoro-4-hydroxy-3-((2S,5S)-5-(2-hydroxypropan-2-yl)-2-methyltetrahydrofuran-2-yl)-2a,5a,8,8-tetramethyltetradecahydro-1H,12H-cyclopenta[a]cyclopropa[e]phenanthren-7-yl)oxy)-2-oxoethyl)amino)-3-hydroxy-1-oxopropan-2-aminium Chloride] | 6250 µg/mL | 1650 µg/mL | 3888 ng·h/mL | 403 ng/mL | 4.5 h |  |
| CCOC(=O)[C@H](CCc1ccccc1)N[C@@H](C)C(=O)N1CCC[C@H]1C(=O)O [Enalapril, reference compound] |  |  |  |  |  | very significant increase |
